Experiments:
HepG2 or HepG2.117 cells = test: Cytotoxicity, ATPlite Luminescence Assay; assay type: cell-based, human; conditions: 3-days incubation unless marked with *
Outline: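 Compounds were added to cells and incubated 3 or 4 days. ATP content was then measured by luminescence to gauge cell viability.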

[1] = Human liver microsome stability; assay type: in vitro ADME
Outline: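 Half-life came from elimination rate constant (negative slope of ln compound/internal standard area ratio over time), measured by cassette LC-MS after acetonitrile quench. Human liver microsome reactions, one replicate per compound, were initiated with NADPH (1 mM final) and sampled at six points up to 60 min.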

[2] = tested on: HBV (HepG2.117 cell line, inducibly HBV producing); test: Anti-HBV activity, intracellular HBV DNA by real-time PCR in HepG2.117 cell line; assay type: cell-based, hepatitis B virus; conditions: HepG2.117 cells, 3 days of treatment
Outline: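 Tet-off HepG2.117; HBV replication induced (no doxycycline); serial compound dilutions, 3 d; intracellular HBV DNA by real-time PCR, HBV-specific primers/probe.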

[3] = pooled human liver microsomes 0.5 mg/mL, 1 μM compound, NADPH 1 mM, 37° C., 0-60 min

C[C@@H]1Cc2nn3c(c2CN1C(=O)c1ccc(Cl)c(C(F)(F)F)c1)C(=O)N([C@H](C)c1ccc([S@@]2(=O)=NCCC2)nc1)C[C@H]3C (relative stereo) [Compound 30A, (3R,7R)-2-(4-chloro-3-(trifluoromethyl)benzoyl)-3,7-dimethyl-9-((R*)-1-(6-((R*)-1-oxido-4,5-dihydro-3H-116-isothiazol-1-yl)pyridin-3-yl)ethyl)-1,2,3,4,8,9-hexahydropyrido[4′,3′:3,4]pyrazolo[1,5-a]pyrazin-10(7H)-one]
CC50 (HepG2 or HepG2.117 cells): > 50 µM | HLM Metabolism t1/2 [1, 3]: 0.495 h | EC50 [2]: 0.14 µM

C[C@@H]1Cc2nn3c(c2CN1C(=O)c1ccc(Cl)c(C#N)c1)C(=O)N([C@@H](C)c1ccc(OC(F)F)cc1)C[C@H]3C (relative stereo) [Compound 1D, 2-Chloro-5-((3R,7R*)-9-((S*)-1-(4-(difluoromethoxy)phenyl)ethyl)-3,7-dimethyl-O-oxo-1,2,3,4,7,8,9,10-octahydropyrido[4′,3′:3,4]pyrazolo[1,5-a]pyrazine-2-carbonyl)benzonitrile]
CC50 (HepG2 or HepG2.117 cells): > 50 µM | HLM Metabolism t1/2 ([1]; human, microsomes): >3 h | EC50 [2]: 0.021 µM

CC(c1cnc(C(C)(C)O)nc1)N1C[C@@H](C)n2nc3c(c2C1=O)CN(C(=O)c1ccc(Cl)c(C(F)(F)F)c1)[C@H](C)C3 (single isomer, unassigned) [Compound 35B, (3R,7R)-2-(4-chloro-3-(trifluoromethyl)benzoyl)-9-((S*)-1-(2-(2-hydroxypropan-2-yl)pyrimidin-5-yl)ethyl)-3,7-dimethyl-1,2,3,4,8,9-hexahydropyrido[4′,3′:3,4]pyrazolo[1,5-a]pyrazin-10(7H)-one]
CC50 (HepG2 or HepG2.117 cells): > 50 µM | HLM Metabolism t1/2 [1, 3]: >3 h | EC50 [2]: 0.01 µM

Cc1nnn(-c2ccc(C(C)N3C[C@@H](C)n4nc5c(c4C3=O)CN(C(=O)c3ccc(Cl)c(Cl)c3)[C@H](C)C5)cc2)n1 (single isomer, unassigned) [Compound 22B, (3R,7R)-2-(3,4-dichlorobenzoyl)-3,7-dimethyl-9-((S*)-1-(4-(5-methyl-2H-tetrazol-2-yl)phenyl)ethyl)-1,2,3,4,8,9-hexahydropyrido[4′,3′:3,4]pyrazolo[1,5-a]pyrazin-10(7H)-one]
CC50 (HepG2 or HepG2.117 cells): > 50 µM | HLM Metabolism t1/2 [1, 3]: 2.13 h | EC50 [2]: 0.02 µM

CC(c1ccc(C(C)(C)O)nc1)N1C[C@@H](C)n2nc3c(c2C1=O)CN(C(=O)c1ccc(Cl)c(Cl)c1)[C@H](C)C3 (single isomer, unassigned) [Compound 2B, (3R,7R)-2-(3,4-dichlorobenzoyl)-9-((S*)-1-(6-(2-hydroxypropan-2-yl)pyridin-3-yl)ethyl)-3,7-dimethyl-1,2,3,4,8,9-hexahydropyrido[4′,3′:3,4]pyrazolo[1,5-a]pyrazin-10(7H)-one]
CC50 (HepG2 or HepG2.117 cells): > 50 µM | HLM Metabolism t1/2 [1, 3]: 2.3 h | EC50 [2]: 0.015 µM

C[C@@H]1Cc2nn3c(c2CN1C(=O)c1ccc(Cl)c(C(F)(F)F)c1)C(=O)N([C@H](C)c1ccc([S@]2(=O)=NCCC2)nc1)C[C@H]3C (relative stereo) [Compound 30C, (3R,7R)-2-(4-chloro-3-(trifluoromethyl)benzoyl)-3,7-dimethyl-9-((R*)-1-(6-((S*)-1-oxido-4,5-dihydro-3H-116-isothiazol-1-yl)pyridin-3-yl)ethyl)-1,2,3,4,8,9-hexahydropyrido[4′,3′:3,4]pyrazolo[1,5-a]pyrazin-10(7H)-one]
CC50 (HepG2 or HepG2.117 cells): > 50 µM | HLM Metabolism t1/2 [1, 3]: 0.685 h | EC50 [2]: 0.31 µM

CC(c1ccn(CC(C)(C)O)c(=O)c1)N1C[C@@H](C)n2nc3c(c2C1=O)CN(C(=O)c1ccc(Cl)c(C(F)(F)F)c1)[C@H](C)C3 (single isomer, unassigned) [Compound 64B, (3R,7R)-2-(4-chloro-3-(trifluoromethyl)benzoyl)-9-((S*)-1-(1-(2-hydroxy-2-methylpropyl)-2-oxo-1,2-dihydropyridin-4-yl)ethyl)-3,7-dimethyl-1,2,3,4,8,9-hexahydropyrido[4′,3′:3,4]pyrazolo[1,5-a]pyrazin-10(7H)-one]
CC50 (HepG2 or HepG2.117 cells): > 50 µM | HLM Metabolism t1/2 [1, 3]: >3 h | EC50 [2]: 0.085 µM

CC(c1ccc(N2CCCC2=O)cc1)N1C[C@@H](C)n2nc3c(c2C1=O)CN(C(=O)c1ccc(Cl)c(C#N)c1)[C@H](C)C3 (single isomer, unassigned) [Compound 9B, 2-Chloro-5-((3R,7R)-3,7-dimethyl-10-oxo-9-((S*)-1-(4-(2-oxopyrrolidin-1-yl)phenyl)ethyl)-1,2,3,4,7,8,9,10-octahydropyrido[4′,3′:3,4]pyrazolo[1,5-a]pyrazine-2-carbonyl)benzonitrile]
CC50 (HepG2 or HepG2.117 cells): > 50 µM | HLM Metabolism t1/2 [1, 3]: 1.83 h | EC50 [2]: 0.02 µM

CC(c1ccc(S(N)(=O)=O)cc1)N1C[C@@H](C)n2nc3c(c2C1=O)CN(C(=O)c1ccc(Cl)c(Cl)c1)[C@H](C)C3 (single isomer, unassigned) [Compound 16B, 4-((S*)-1-((3R,7R)-2-(3,4-dichlorobenzoyl)-3,7-dimethyl-10-oxo-1,2,3,4,7,8-hexahydropyrido[4′,3′:3,4]pyrazolo[1,5-a]pyrazin-9(10H)-yl)ethyl)benzenesulfonamide]
CC50 (HepG2 or HepG2.117 cells): > 50 µM | HLM Metabolism t1/2 [1, 3]: >3 h | EC50 [2]: 0.059 µM
